What was measured:
[1] = biological target: T1, Steroid 17-alpha-hydroxylase/17,20 lyase (Homo sapiens, UniProt P05093); test: Inhibition of human CYP17 expressed in Escherichia coli co-expressed with NADPH-P450 reductase at 0.2 uM
T1 sequence (P05093 whole entry): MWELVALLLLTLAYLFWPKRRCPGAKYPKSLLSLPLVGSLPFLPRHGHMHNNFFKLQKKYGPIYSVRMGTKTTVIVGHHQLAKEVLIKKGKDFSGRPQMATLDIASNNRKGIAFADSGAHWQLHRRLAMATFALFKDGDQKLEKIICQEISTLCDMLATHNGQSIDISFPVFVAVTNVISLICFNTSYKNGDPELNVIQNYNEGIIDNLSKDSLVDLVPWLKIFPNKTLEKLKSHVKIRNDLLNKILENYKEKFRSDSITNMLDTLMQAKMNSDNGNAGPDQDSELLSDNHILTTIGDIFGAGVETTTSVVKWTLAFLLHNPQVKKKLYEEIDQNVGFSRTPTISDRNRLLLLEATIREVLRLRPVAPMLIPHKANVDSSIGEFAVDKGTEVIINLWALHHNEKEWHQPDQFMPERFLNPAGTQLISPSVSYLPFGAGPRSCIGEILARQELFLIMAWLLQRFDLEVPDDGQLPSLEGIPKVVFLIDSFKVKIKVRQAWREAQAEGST

[2] = biological target: T1, Steroid 17-alpha-hydroxylase/17,20 lyase; test: Inhibition of human CYP17 expressed in Escherichia coli co-expressed with NADPH-P450 reductase at 2 uM
CYP3A4 [3] = biological target: T2, CYP3A4 (Homo sapiens, UniProt P08684); test: Inhibition of recombinant CYP3A4 at 10 uM; type: ADME
[4] = biological target: T1, Steroid 17-alpha-hydroxylase/17,20 lyase; test: Inhibition of human CYP17 expressed in Escherichia coli co-expressed with NADPH-P450 reductase
CYP3A4 [5] = biological target: T2, CYP3A4; test: Inhibition of recombinant CYP3A4 at 1 uM; type: ADME

T2 sequence (P08684 whole entry): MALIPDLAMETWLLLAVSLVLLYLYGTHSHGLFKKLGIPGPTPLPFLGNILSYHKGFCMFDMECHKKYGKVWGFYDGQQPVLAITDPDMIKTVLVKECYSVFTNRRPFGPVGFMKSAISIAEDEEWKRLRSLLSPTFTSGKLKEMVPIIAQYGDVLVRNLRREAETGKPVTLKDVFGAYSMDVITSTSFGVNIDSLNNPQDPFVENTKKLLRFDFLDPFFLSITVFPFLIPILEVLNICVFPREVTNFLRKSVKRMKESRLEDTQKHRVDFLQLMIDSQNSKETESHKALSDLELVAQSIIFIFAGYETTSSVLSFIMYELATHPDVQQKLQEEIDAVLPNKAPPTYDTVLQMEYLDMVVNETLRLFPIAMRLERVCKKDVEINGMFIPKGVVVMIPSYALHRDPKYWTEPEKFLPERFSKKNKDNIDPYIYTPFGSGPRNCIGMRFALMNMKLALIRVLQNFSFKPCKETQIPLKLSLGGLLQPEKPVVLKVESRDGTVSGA

inhibition at 0.2 µM [1] [%] | inhibition at 2 µM [2] [%] | inhibition at 10 µM (CYP3A4 [3]) [%] | IC50 [4] [nM] | inhibition at 1 µM (CYP3A4 [5]) [%] | Structure (SMILES)
5 | 5 | – | – | – | Fc1ccc(-c2ccc(Cn3ccnc3)cn2)cc1
1 | 2 | – | – | – | COc1ccc(-c2ccc(Cn3ccnc3)cn2)cc1OC
0 | 20 | – | – | – | Fc1ccc(-c2csc(Cn3ccnc3)c2)cc1
4 | 13 | – | – | – | Fc1ccc(-c2ccc(Cn3ccnc3)cc2)cn1
0 | 5 | – | – | – | COc1ccccc1-c1ccc(Cn2ccnc2)cn1
0 | 4 | – | – | – | c1ccc(-c2ccc(Cn3ccnc3)cn2)cc1
0 | 2 | – | – | – | Fc1ccc(-c2ccc(Cn3ccnc3)nc2)cc1
0 | 0 | – | – | – | Fc1ccc(-c2ccc(Cn3ccnc3)cn2)cc1F

More lines, now with the values behind:

Structure (SMILES) | inhibition at 0.2 µM [1] [%] | inhibition at 2 µM [2] [%] | inhibition at 10 µM (CYP3A4 [3]) [%] | IC50 [4] [nM] | inhibition at 1 µM (CYP3A4 [5]) [%]
c1cn(Cc2ccc(-c3cncnc3)cc2)cn1 | 5 | 3 | – | – | –
CCC(c1ccc(-c2ccsc2Cl)cc1)n1ccnc1 (stereo not given) | 40 | 85 | 97 | 263 | 87
CSc1ccc(-c2ccc(Cn3ccnc3)cc2)s1 | 3 | 35 | – | – | –
COc1cccc(-c2csc(Cn3ccnc3)c2)c1 | 0 | 24 | – | – | –
c1ccc(-c2csc(Cn3ccnc3)c2)cc1 | 0 | 21 | – | – | –
Fc1ccc(-c2csc(Cn3ccnc3)c2)cc1F | 7 | 25 | – | – | –
CC(C)C(O)(c1ccc(-c2ccsc2)cc1)c1c[nH]cn1 (stereo not given) | 7 | 49 | – | – | –
c1cncc(-c2ccc(Cn3ccnc3)cc2)c1 | 2 | 14 | – | – | –

Source: ChEMBL document CHEMBL1141584, “Synthesis, biological evaluation and molecular modelling studies of methyleneimidazole substituted biaryls as inhibitors of human 17alpha-hydroxylase-17,20-lyase (CYP17). Part I: Heterocyclic modifications of the core structure” (Bioorg Med Chem, 2008)
